PubChem BioAssay (NCI)
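Briefly, cells in 96-well plates were exposed to five compound concentrations for 48 h, and endpoints were estimated by linear interpolation. TGI is the concentration that stops growth completely.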

Columns and labels:
Experiment in all cases: NCI tumour cell line growth inhibition, 48 h
K-562 leukemia = system: K-562 leukemia
RXF 393 renal = system: RXF 393 renal
SF-539 CNS = system: SF-539 CNS
OVCAR-8 ovarian = system: OVCAR-8 ovarian
SNB-19 CNS = system: SNB-19 CNS
OVCAR-4 ovarian = system: OVCAR-4 ovarian
SK-MEL-2 melanoma = system: SK-MEL-2 melanoma
UACC-62 melanoma = system: UACC-62 melanoma
NCI-H522 lung = system: NCI-H522 lung
ACHN renal = system: ACHN renal
UO-31 renal = system: UO-31 renal
MOLT-4 leukemia = system: MOLT-4 leukemia
IGROV1 ovarian = system: IGROV1 ovarian
TK-10 renal = system: TK-10 renal
786-0 renal = system: 786-0 renal
T-47D breast = system: T-47D breast
MCF7 breast = system: MCF7 breast
NCI/ADR-RES ovarian = system: NCI/ADR-RES ovarian
MDA-MB-435 = system: MDA-MB-435
PC-3 prostate = system: PC-3 prostate

Row | Compound | TGI (K-562 leukemia) [µM] | TGI (RXF 393 renal) [µM] | TGI (SF-539 CNS) [µM] | TGI (OVCAR-8 ovarian) [µM] | TGI (SNB-19 CNS) [µM] | TGI (OVCAR-4 ovarian) [µM] | TGI (SK-MEL-2 melanoma) [µM] | TGI (UACC-62 melanoma) [µM] | TGI (NCI-H522 lung) [µM] | TGI (ACHN renal) [µM] | TGI (UO-31 renal) [µM] | TGI (MOLT-4 leukemia) [µM] | TGI (IGROV1 ovarian) [µM] | TGI (TK-10 renal) [µM] | TGI (786-0 renal) [µM] | TGI (T-47D breast) [µM] | TGI (MCF7 breast) [µM] | TGI (NCI/ADR-RES ovarian) [µM] | TGI (MDA-MB-435) [µM] | TGI (PC-3 prostate) [µM]
1 | O=Cc1ccccc1COC(=O)c1cc(C(=O)OCc2ccccc2C=O)c(C(=O)OCc2ccccc2C=O)cc1C(=O)OCc1ccccc1C=O | > 100 | > 100 | > 100 | > 100 | > 100 | > 100 | > 100 | > 100 | > 100 | > 100 | > 100 | > 100 | > 100 | > 100 | > 100 | – | – | – | – | –
2 | CCO/C=N\C1=C(C#N)SC2=N/C(=C\c3ccc(OC)cc3)C(=O)N21 | > 100 | > 100 | > 100 | > 100 | > 100 | 65.6 | – | – | > 100 | > 100 | > 100 | > 100 | > 100 | > 100 | > 100 | > 100 | > 100 | > 100 | > 100 | –
3 | CC1=CCC(O)C=CC(C)C(O)C(C)C=C(C)C(=O)c2c(O)c(C)cc3c2C(=O)C(N)=C(NC(=O)/C=C\C=C/C=CC(C)C(O)CC1=O)C3=O (stereo not given) | > 100 | – | > 100 | > 100 | > 100 | > 100 | > 100 | > 100 | 35.3 | > 100 | > 100 | > 100 | > 100 | > 100 | > 100 | – | – | – | – | –
4 | N#C/C(=C/NC(N)=S)C(N)=O | – | > 100 | > 100 | > 100 | > 100 | > 100 | > 100 | – | – | > 100 | > 100 | – | > 100 | > 100 | > 100 | > 100 | > 100 | > 100 | > 100 | –
5 | Cn1c(O)c(C(=O)NC2CCCCC2)c(=O)n(C)c1=S | – | – | 21.4 | 17.9 | 71.2 | 42.7 | 15 | 14.4 | 16.9 | 13.7 | – | 12.6 | 27.8 | 33.3 | 22.9 | – | – | – | – | –
6 | CC(=O)ONC(C(=O)C(C)(C)C)C(=O)C(C)(C)C | > 100 | > 100 | > 100 | > 100 | > 100 | > 100 | > 100 | – | > 100 | > 100 | > 100 | > 100 | > 100 | > 100 | > 100 | > 100 | > 100 | > 100 | – | > 100
7 | O=c1c2ccccc2nc(Cc2nc(-c3ccc(Cl)cc3)cs2)n1-c1ccc(Cl)cc1 | > 100 | > 100 | – | > 100 | > 100 | > 100 | > 100 | > 100 | > 100 | > 100 | > 100 | > 100 | > 100 | > 100 | > 100 | – | > 100 | > 100 | > 100 | > 100
8 | Nc1nc(-c2ccccc2)cc(-c2ccc(OCc3ccccc3)cc2O)n1 | > 100 | 76.8 | > 100 | > 100 | > 100 | > 100 | > 100 | > 100 | 90.7 | > 100 | > 100 | > 100 | > 100 | 91 | > 100 | – | > 100 | > 100 | > 100 | > 100
9 | CCOC(=O)Cc1nc2cc(F)c(F)cc2[nH]c1=O | > 100 | > 100 | > 100 | > 100 | > 100 | > 100 | > 100 | > 100 | – | > 100 | > 100 | > 100 | – | > 100 | > 100 | – | > 100 | > 100 | > 100 | > 100
10 | O=[N+]([O-])c1ccc(S(=O)(=O)n2c3ccc(Br)cc3c3nc4ccccc4nc32)cc1 | > 100 | > 100 | – | > 100 | > 100 | > 100 | > 100 | > 100 | > 100 | > 100 | > 100 | > 100 | > 100 | > 100 | > 100 | > 100 | – | > 100 | > 100 | > 100
11 | O=C1CC(c2cccc([N+](=O)[O-])c2)C2(C(=O)NC(=O)NC2=O)C(c2cccc([N+](=O)[O-])c2)C1 (stereo not given) | > 100 | 61.1 | > 100 | > 100 | > 100 | > 100 | > 100 | > 100 | > 100 | > 100 | > 100 | > 100 | > 100 | – | > 100 | – | 44 | > 100 | > 100 | > 100
12 | O=C1c2ccsc2C(=O)c2sc(CO)cc21 | 2.48 | 1.9 | 0.1 | 0.38 | 0.218 | 0.31 | 0.232 | 0.122 | 0.259 | 0.238 | 0.317 | > 100 | 1.36 | 10.1 | 0.855 | – | – | 0.396 | < 0.0178 | 1.78
13 | C(/C=C/Nc1ccc(Oc2ccccc2)cc1)=Nc1ccc(Oc2ccccc2)cc1 | 55.9 | 39.6 | 32.9 | 38.8 | 31.3 | 32.8 | – | – | 37.7 | 50.9 | 35 | – | 33 | 34.7 | 32.2 | – | 31.1 | 33.5 | 31.7 | 28.4
